Results reported in article PMC7460240 (Biomedicines, 2020).
≈ marks a conversion by molar mass, not a printed value. Counter-ions that a name gives are not always drawn. One block for each compound: values may come before it.

What was measured:
H295R cells [1] = experiment: Cytotoxicity assay (neutral red, 48 h) on H295R cells; assay type: cell-based, human
Experimental: (§1) Cytotoxicity assays on H295R cells were carried out as previously described. Briefly, H295R cells were grown in 96-well plates to achieve 70% to 80% confluence. […] An amount of 100 µL of medium containing increasing concentrations of dxr was then added. […] After 48 h, cells were incubated 3 h at 37 °C with neutral red (NR) solution following the manufacturer’s protocol. Absorbance was measured in a microplate reader (Multiskan Go Microplate Spectrophotometer from Thermo Fisher Scientific, Illkirch, France).

H295R cells [2] = experiment: cells; conditions: Homo sapiens, NCI-H295R, 168 h, read-out: Dxr-IC50 (proliferation), astemizole 0 µM
Ptch1 [3] = target: T1, Ptch1 (Homo sapiens, UniProt Q13635); experiment: Screening on the resistance to doxorubicin of yeast expressing human Ptch1 (growth, OD600); assay type: cell-based; design: expressed in transfected cells; host or cells: Saccharomyces cerevisiae strain K699; conditions: 10 µM compound; for effect on resistance/growth of hPtch1-expressing yeast in the presence of dxr: 10 µM dxr, 18 °C, about 72 h
T1 sequence (Q13635 1-1447): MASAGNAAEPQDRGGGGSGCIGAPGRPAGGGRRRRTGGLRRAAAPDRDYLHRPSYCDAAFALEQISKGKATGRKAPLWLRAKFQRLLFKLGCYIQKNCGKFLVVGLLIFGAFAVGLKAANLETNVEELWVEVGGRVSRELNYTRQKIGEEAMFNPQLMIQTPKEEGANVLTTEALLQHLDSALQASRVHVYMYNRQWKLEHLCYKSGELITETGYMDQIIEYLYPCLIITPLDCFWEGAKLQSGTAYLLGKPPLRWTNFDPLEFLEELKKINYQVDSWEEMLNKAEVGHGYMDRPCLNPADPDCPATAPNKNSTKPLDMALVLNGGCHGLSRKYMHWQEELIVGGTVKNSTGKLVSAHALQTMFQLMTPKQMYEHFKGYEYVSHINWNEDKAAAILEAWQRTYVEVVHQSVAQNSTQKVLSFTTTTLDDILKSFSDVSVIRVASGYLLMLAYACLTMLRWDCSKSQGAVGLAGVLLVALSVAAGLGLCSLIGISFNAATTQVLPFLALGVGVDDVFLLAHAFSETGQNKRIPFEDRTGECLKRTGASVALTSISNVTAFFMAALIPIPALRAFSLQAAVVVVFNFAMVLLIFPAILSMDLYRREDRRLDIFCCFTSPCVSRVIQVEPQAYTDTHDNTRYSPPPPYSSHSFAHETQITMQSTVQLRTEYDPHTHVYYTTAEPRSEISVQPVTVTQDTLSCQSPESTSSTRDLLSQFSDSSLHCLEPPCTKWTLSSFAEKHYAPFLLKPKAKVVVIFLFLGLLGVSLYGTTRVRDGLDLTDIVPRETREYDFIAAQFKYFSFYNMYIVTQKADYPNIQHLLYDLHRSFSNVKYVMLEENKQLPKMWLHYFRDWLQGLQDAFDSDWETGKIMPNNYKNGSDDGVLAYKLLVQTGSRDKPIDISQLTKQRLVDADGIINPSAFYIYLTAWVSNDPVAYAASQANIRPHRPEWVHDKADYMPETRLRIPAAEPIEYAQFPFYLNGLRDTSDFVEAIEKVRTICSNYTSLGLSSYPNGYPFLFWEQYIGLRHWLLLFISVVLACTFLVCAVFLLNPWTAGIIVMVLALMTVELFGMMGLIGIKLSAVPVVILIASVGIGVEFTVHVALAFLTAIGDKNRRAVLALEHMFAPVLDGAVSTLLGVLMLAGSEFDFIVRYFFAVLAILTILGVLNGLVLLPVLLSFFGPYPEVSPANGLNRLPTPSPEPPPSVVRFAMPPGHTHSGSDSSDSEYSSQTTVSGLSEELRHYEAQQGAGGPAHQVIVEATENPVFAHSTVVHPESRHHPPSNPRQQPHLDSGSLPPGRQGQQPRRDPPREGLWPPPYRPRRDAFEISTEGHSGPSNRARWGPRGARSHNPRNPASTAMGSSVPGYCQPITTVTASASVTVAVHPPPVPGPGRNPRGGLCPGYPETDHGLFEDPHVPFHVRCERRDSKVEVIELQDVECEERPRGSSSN
Experimental: The screening of molecules on yeast was carried out as described in [18]. Briefly, S. cerevisiae expressing human Ptch1 were grown at 30 °C up to an OD600 between 1 and 2in minimal medium containing 2% of glucose and amino acid cocktail without leucine, and then diluted in rich medium containing 2% glucose in 96-well plates. An amount of 10 µM of molecules to be tested was added in 8 wells (10 molecules can be tested on one plate) and 10 µM of dxr was added to half of the wells. Plates were incubated at 18 °C on a shaker at 1250 rpm (microtiter plate shaker SSL5 Stuart) and absorbance at 600 nm was recorded for about 72 h.
Figure 1 P136 inhibits doxorubicin efflux activity of hPtch1 when expressed in yeast. (A) P136 inhibits the resistance of hPtch1-expressing yeast to doxorubicin. hPtch1-expressing yeast were grown in the presence of 10 µM of P136, P298 or P375, and in the presence or absence of 10 µM doxorubicin (dxr). DMSO was used as control. The growth of yeast was measured by absorbance at 600 nm. (B) P136 inhibits the efflux of doxorubicin of hPtch1-expressing yeast. hPtch1-expressing yeast and control yeast were incubated with dxr for 2 h and fixed for dxr loading control or resuspended in buffer containing DMSO or 10 μM P136 for 10 min, fixed and deposited on a coverslip for analysis by fluorescence microscopy. The dxr fluorescence of 100 yeast for each condition from 3 independent experiments was quantified using the ImageJ software. […] Significance is attained at p < 0.05 (*) (***: p < 0.0005, ****: p < 0.00005, ns: no significant difference).

H295R cells [4] = test system: H295R cells
HaCaT keratinocytes = experiment: Cell viability of HaCaT keratinocytes (48 h); assay type: cell-based, human; conditions: 10 µM astemizole
[5] = Solubility in aqueous buffer (PBS, pH 7.4); assay type: physicochemical
H295R cells [6] = experiment: Clone formation of H295R cells (14 days, crystal violet); assay type: cell-based, human; conditions: combination of dxr and astemizole
Experimental: After 14 days, clones were stained with crystal violet and pictures were taken. Cells were then solubilized and absorbance was measured in a microplate reader at 550 nm (Multiskan Go Microplate Spectrophotometer, Thermo Scientific, Illkirch, France).

[7] = Distribution coefficient octanol/PBS pH 7.4; assay type: physicochemical; conditions: read-out: LogD7.4
H295R cells [8] = experiment: Synergy analysis of drug combination (Chou-Talalay) on H295R cells; assay type: cell-based, human; conditions: 48 h, dxr with 1 µM astemizole
Experimental: Synergy analysis was performed using the Chou-Talalay method for drug combination as described in [21, 22]. […] Normalized isobolograms and Chou-Talalay’s plots (Fa-CI plot were Fa is the fraction affected and CI is the combination index) were created using the Compusyn Software (Version 1.0 downloaded from www.combosyn.com). These allow quantitative determination of drug interactions, where CI < 1 (below the diagonal), =1 (diagonal) and >1 (above the diagonal) indicate synergism, additive effect and antagonism, respectively. Dose-reduction index (DRI) is reported.

[9] = Human plasma protein binding; assay type: in vitro ADME; conditions: read-out: Ppb
[10] = Metabolic stability in human liver microsomes; assay type: in vitro ADME; conditions: NADPH, read-out: HLM T1/2
Experimental: (§2) Profiling and PK studies were performed by GalenAuxi Co (Oxford, UK) as previously described. […] Plasma samples (50 μL) were collected via the facial vein at 3, 10, 30, 60, 120, 240, 360 and 1440 min post-dose for the IV group, and at 10, 30, 60, 120, 240, 360, 480 and 1440 min post-dose for the PO group in K2EDTA-coated tubes, mixed gently and centrifuged at 2500 g for 15 min at 4 °C within 1 h after collection. For control animals, blood was collected by cardiac puncture. Plasma samples were prepared in acetonitrile for LC-MS/MS analysis. Peak areas were recorded and the concentrations of the test compound in the unknown plasma samples were determined using the respective calibration curve.
(§3) We determined its lipophilicity described by the distribution constant LogD, its solubility, which is an important parameter since water is the solvent of choice for the liquid pharmaceutical formulation, its metabolic stability measured in the presence of rat and human microsomes and NADPH, and its ability to bind to proteins.

MeWo cells [11] = experiment: Doxorubicin efflux in MeWo melanoma cells; assay type: cell-based, human; conditions: 30 µM astemizole, 30 min
Ptch1 [12] = target: T1, Ptch1; experiment: Doxorubicin efflux measurement in H295R cells; assay type: cell-based; design: endogenous in cells; host or cells: H295R; conditions: H295R cells loaded with 10 µM dxr 2 h, then 30 min efflux buffer with 10 µM astemizole
Experimental: (§4) After 2 h, some coverslips were immediately fixed with PFA and mounted in SlowFade Gold antifade reagent containing DAPI (Invitrogen) for loading control.
(§5) Images were acquired with a Zeiss Axioplan 2 fluorescence microscope coupled to a digital charge-coupled device camera using a 63X objective for yeast or a 40X /1.3 Plan NeoFluar objective for cells, and filters for Alexa 594 or FITC for dxr or Bo-chol analysis, respectively. Dxr or Bo-chol fluorescence was quantified using the ImageJ software. About 100 yeast/cells (from three wells) were scored per condition.
(§6) After 2 h, 3 coverslips were fixed for dxr or Bo-chol loading control. […] Images were acquired using fluorescence microscopy and a 40x objective. Fluorescence was quantified using the Image J software for 100 cells per condition.

[13] = Cytotoxicity assay (neutral red, 48 h) on H295R cells; assay type: cell-based, human; conditions: human, H295R cells at 80% confluence
Experimental: as §1

hPtch1 = target: T2, hPtch1 (Homo sapiens, UniProt Q13635); experiment: Doxorubicin efflux measurement in hPtch1-expressing yeast (fluorescence microscopy); assay type: cell-based; conditions: 10 µM P136 in efflux buffer, 10 min, 2-deoxy-D-glucose
T2 construct: expressed in transfected cells; host or cells: Saccharomyces cerevisiae strain K699
T2 sequence (Q13635 1-1447): T1 sequence (Q13635 1-1447)
Experimental: Efflux measurements were carried out as described in [19]. On yeast: hPtch1-expressing yeasts or control yeasts were grown to an OD600 of 5, centrifuged, washed with cold water and resuspended in HEPES–NaOH buffer (pH 7.0) containing 5 mM 2-deoxy-D-glucose and 10 µM dxr for 2 h at 4 °C. […] Yeasts were centrifuged, resuspended in 4% PFA and deposited on a coverslip with SlowFade Gold antifade reagent containing DAPI (Invitrogen).
as §5
Figure 1 P136 inhibits doxorubicin efflux activity of hPtch1 when expressed in yeast. […] The growth of yeast was measured by absorbance at 600 nm. (B) P136 inhibits the efflux of doxorubicin of hPtch1-expressing yeast. hPtch1-expressing yeast and control yeast were incubated with dxr for 2 h and fixed for dxr loading control or resuspended in buffer containing DMSO or 10 μM P136 for 10 min, fixed and deposited on a coverslip for analysis by fluorescence microscopy. […]

H295R cells [14] = experiment: Spheroid formation in 3D culture of H295R cells; assay type: cell-based, human; conditions: 14 days
Experimental: H295R cells were cultured in DMEM/F-12, 2% NuSerum, 1% ITS Plus and penicillin/streptomycin supplemented with 20 µg/µL EGF and 20 µg/µL FGF. […] After 14 days, images of each well were taken using a cell imaging multi-mode reader (Cytation 5 from Bio Tek, Colmar, France). Then, 100 µL of the medium was removed from each well and 100 µL of Cell Titer Glow 3D reagent (Promega) was added. Spheroids were disrupted according to the protocol from the Cell Titer Glow 3D Viability Assay (Promega) and viability was measured in a microplate reader at 550 nm (Multiskan Go Microplate Spectrophotometer, Thermo Scientific).

[15] = Metabolic stability in rat liver microsomes; assay type: in vitro ADME; conditions: NADPH, read-out: RLM T1/2
Experimental: as §2, §3

Ptch1 [16] = target: T1, Ptch1; experiment: BODIPY-cholesterol efflux measurement in H295R cells; assay type: cell-based; design: endogenous in cells; host or cells: H295R; conditions: H295R cells loaded with BODIPY-cholesterol 2 h, then 30 min efflux buffer with 10 µM astemizole
Experimental: as §4, §5, §6

MeWo cells [17] = experiment: Cell viability of MeWo melanoma cells (48 h); conditions: MeWo cells, 48 h, serial dilutions of astemizole with 2 µM dxr
Experimental: (§7) Cell viability was measured after 48 hours
(§8) doxorubicin (dxr) 2 μM. The graphs reported are representative of more than 3 independent
(§9) Cell viability was measured after 48 hours treatment
(§10) the mean ± SEM values of 3 independent experiments. Significance, calculated using ANOVA
(§11) multiple comparison test and Bonferroni correction, was attained at p < 0.05 (*) (***: p < 0.0005).

[18] = Cell viability of MeWo melanoma cells (48 h); conditions: human, MeWo melanoma cells
Experimental: as §7, §8, §9, §10, §11

caspase 3/7 activity = experiment: Apoptosis measurement (Caspase-Glo 3/7) in H295R cells; assay type: cell-based, human; conditions: 48 h, 0.5 µM astemizole, no dxr
Experimental: Quantification of caspase 3/7 activity was performed using the luminescent assay Caspase-Glo 3/7 (Promega, Charbonnières-les-Bains, France) and a luminometer (Glomax 96 Microplate Luminometer from Promega, Charbonnières-les-Bains, France) following the manufacturer’s protocol.

IC50 (H295R cells [2]): 0.1 ± 0.02 µM
SMILES: COc1cccc2c1C(=O)c1c(O)c3c(c(O)c1C2=O)C[C@@](O)(C(=O)CO)C[C@@H]3O[C@H]1C[C@H](N)[C@H](O)[C@H](C)O1 [Dxr, Doxorubicin hydrochloride]
IC50 (H295R cells [1]; Homo sapiens, NCI-H295R, read-out: Dxr-IC50 Without Astemizole, H295R cells, neutral red, mean ± SEM of 3 experiments): 17.3 ± 3.6 µM

SMILES: CSc1ccc2c(c1)C(N1CCN(C)CC1)Cc1ccccc1S2 (stereo not drawn) [P375, methiothepin maleate]
effect on resistance/growth of hPtch1-expressing yeast in the presence of dxr (Ptch1 [3]): significantly inhibited the resistance of hPtch1-expressing yeast to dxr

solubility [5]: 22.1 µM (≈ 10.1 µg/mL) | logD [7]: 3.5 | fraction unbound [9]: 0.01 | half-life [10]: > 60 min | dxr kept inside the cells (Ptch1 [12]): about 73% | half-life [15]: 31 min | Bo-chol kept inside the cells (Ptch1 [16]): about 95%
SMILES: COc1ccc(CCN2CCC(Nc3nc4ccccc4n3Cc3ccc(F)cc3)CC2)cc1 [astemizole, Astemizole]
effect of astemizole by itself on cell viability (H295R cells [4]; 7 days, 0.5 µM astemizole, no dxr): does not affect cell viability by itself | effect of astemizole alone on proliferation (H295R cells [4]; serial dilution of astemizole for 7 days): inhibited their proliferation | effect on keratinocyte viability (HaCaT keratinocytes): very slight effect on keratinocyte viability | increase of the anti-clonogenic activity of dxr (H295R cells [6]): increased four times | cooperativity indices (CI), dxr and astemizole (H295R cells [8]): below 1 | effect on resistance/growth of hPtch1-expressing yeast in the presence of dxr (Ptch1 [3]): able to inhibit the growth of hPtch1-expressing yeast in the presence of dxr | effect on growth of hPtch1-expressing yeast in the absence of dxr (Ptch1 [3]; no dxr): without effects on the growth of hPtch1-expressing yeast in the absence of dxr | effect on dxr efflux from melanoma cells (MeWo cells [11]): inhibits dxr efflux from melanoma cells | increase of the efficacy of dxr combined with etoposide and mitotane (EDM) by astemizole (H295R cells [1]; H295R cells, 1 µM astemizole, dxr + 10 µM etoposide + 10 µM mitotane): about eight times | increase of the cytotoxicity of dxr by astemizole (H295R cells [1]; H295R cells, 1 µM astemizole, dxr alone): about 10 times | toxicity of astemizole by itself to ACC cells (H295R cells [1]; H295R cells, 1 µM astemizole, no dxr): not toxic to ACC cells by itself | IC50 at 48 h [13]: ~7 µM | effect on amount of dxr in hPtch1-expressing yeast (dxr efflux) (hPtch1): increases the amount of dxr in hPtch1-expressing yeast significantly more than in control yeast | spheroid size with combination dxr + astemizole (H295R cells [14]): significantly smaller | effect on dxr cytotoxicity in melanoma cells (MeWo cells [17]): increases dxr cytotoxicity | IC50 at 48 h [18]: ~7 µM | effect of astemizole by itself on caspase 3/7 activity (caspase 3/7 activity): does not affect caspase 3/7 activity by itself
